Laboratory results: patent publication US4687840A, “Hypotensive active peptides” (Texas Tech University Health Sciences Center, priority 1986, dated 1987)

Test system: rat tail artery helical strip
Conditions: strips contracted with arginine vasopressin, dose of 100 mg/ml
Protocol: Male and female Sprague-Dawley rats were anesthetized with pentobarbital (50 mg/kg) before removal of the tail artery. Upon isolation the artery was placed in ice cold Krebs-Hensleit solution (KHS) which was oxygenated with 95% O2, 5% CO2. The vessels were cut helically and strips of approximately 1.5 cm were secured in a Sawyer-Bartleston chamber containing KHS. The development of force of the helical strips was measured with a Grass FT.03 force displacement transducer and recorded on a Grass Model 79D polygraph. Isolated tail artery helical strips were equilibrated for one hour prior to addition of any peptide. In all cases, the strips were first contracted by adding arginine vasopressin (AVP), to the bath. The peptide being studied was then added to the bath and the degree of relaxation was determined.

In the case of N=C(N)NCCC[C@@H](N)C(=O)O [D Arg, D-arginine], the Tension change is reported as 0 gm.
